pIC50: −log10 of the molar value. Read-outs that look alike come from different tables or passages of the source. Each block holds one compound with its values, some of them ahead of it.
Assays:
3T3-L1 pre-adipocytes = assay: Insulin-based 3T3-L1 adipogenesis assay (AdipoRed); assay type: cell-based, mouse; settings: 10 μM
Description: The probe Compound D1 was also profiled in an insulin-based mouse 3T3-L1 adipogenesis assay. In this assay, 3T3-L1 pre-adipocytes are grown to 2-days post-confluence in DMEM with 10% bovine calf serum, and then induced to differentiate to adipocytes following stimulation for 2 days with an induction cocktail containing […] insulin, 1 μM dexamethasone, and 0.5 mM 3-isobutyl-1-methylxanthine in DMEM containing 10% fetal bovine serum (FBS).^44 2 days later, the media is replaced with DMEM with 10% FBS and 1 μg/ml insulin, and after 2 additional days, the media is replaced with DMEM with 10% FBS for 2 additional days, at which point adipogenesis is measured using the AdipoRed Adipogenesis Assay Reagent from Lonza, according to the manufacturer's instructions. In brief, the assay reagent is added to the wells containing cells, where it partitions into the fat droplets of differentiated adipocytes, and emits fluorescence at 572 nm that can be detected with a plate-reader. To test the effect of probe Compound D1, cells were plated into 48-well plates and allowed to grow to confluence. Cells were then treated with 10 μM Compound D1 or 0.025% DMSO, and after 2 days induced to differentiate in the presence of 10 μM Compound D1 or 0.025% DMSO. Fresh compound or DMSO was added during each media replacement.

[1] = Aqueous solubility in buffer pH 5.0-7.4 and PBS; assay type: physicochemical
[2] = Rodent pharmacokinetics (IV, PO, IP); assay type: in vivo, Male C57BL/6 Mice; settings: mouse
Description: The inventors also examined ML400 (also described herein as MLS-0472870 or Compound D1) for its rodent pharmacokinetics. The probe Compound D1 was profiled in Male C57BL/6 Mice, with n=3 for each group studied (IV, IP and PO arms). The formulation used was 1.00 mg/mL in DMSO:Tween80:Water=5:5:90, which gave a clear solution. […] Enterohepatic circulation was also observed for this compound. This compound has acceptable parameters for future in vivo studies (see Table 4 and FIG. 13).

[3] = test system: obese mice (glucose tolerance); assay: IPGTT in high-fat-diet obese mice; assay type: in vivo, Male C57BL/6 mice; settings: 30 mg/kg daily IP, 4 weeks, HFD obese mice, 2 g glucose/kg
Description: Male C57BL/6 mice were maintained on HFD containing 60 kcal % fat for 3 months, followed by daily IP administration of 30 mg/kg Compound D1 or vehicle. After 4 weeks, IPGTT were performed using 2 g glucose/kg body weight. Mean±SEM is shown. *, p<0.05, Two-way ANOVA.

[4] = Kidney function: serum creatinine of treated mice; assay type: in vivo; settings: mice treated 30 mg/kg daily IP
Description: Serum creatinine levels from mice treated with Compound D1 (ML400) or vehicle (mice shown in FIG. 9) were assessed using the QuantiChrom Creatinine Assay Kit from BioAssay Systems.

[5] = Liver function: serum alanine transaminase or aspartate transaminase of treated mice; assay type: in vivo; settings: mice treated 30 mg/kg daily IP
Description: Serum alanine transaminase or aspartate transaminase levels from mice treated with Compound D1 (ML400) or vehicle (mice shown in FIG. 10) were assessed using EnzyChrom Assay Kits from BioAssay Systems.

[6] = target: LMPTP-A (Low Molecular Weight Protein Tyrosine Phosphatase-A) enzyme (Homo sapiens (Human), UniProt P24666); assay: LMPTP primary screening / LMPTP (OMFP) enzyme inhibition assay, fluorescence intensity; assay type: biochemical
LMPTP-A (Low Molecular Weight Protein Tyrosine Phosphatase-A) enzyme, sequence (P24666 whole entry): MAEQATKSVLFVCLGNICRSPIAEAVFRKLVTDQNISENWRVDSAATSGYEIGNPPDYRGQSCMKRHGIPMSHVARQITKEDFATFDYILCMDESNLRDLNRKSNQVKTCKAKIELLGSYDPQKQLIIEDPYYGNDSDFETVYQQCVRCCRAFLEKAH
Description: This assay attempts to identify inhibitors of the LMPTP-A (Low Molecular Weight Protein Tyrosine Phosphatase-A) enzyme. It is run in 1536-well format and is measured via fluorescence intensity.
A listing of materials is provided: • Item, source, catalog no. • LMPTP-A Enzyme Stock Solution (4.22 mg/ml or 206.8 μM), SBMRI Protein Facility, • N/A • OMFP, Sigma, M2629-100 MG • Bis-Tris pH 6.0, Fisher Sci, BP301-100 • Triton-X 100, Sigma, T9284 • DTT, Sigma, D9779 • Mol. Grade Water, Mediatech, Inc., 46-000-CM • 1536-well black High base opaque bottom plate, Nexus Biosystems, 00019120
Assay Procedure • 1. Prepare Reagents as described in section F. Recipe. • 2. Using LabCyte Echo, transfer 60 nL from 2 mM test compound source plate into assay plate Col. 5-48 (final concentration of test compounds is 20 μM). 60 nL of DMSO should be transferred to col. 1-4 for positive and negative control wells. • 3. Spin plates at 1000 rpm for 1 minute in centrifuge. • 4. […] Using the Bioraptr, add 3 μL/well of enzyme solution to col. 3-48. • 6. Using the Bioraptr, add 3 μL/well of substrate solution to col. 1-48. • 7. Spin plates at 1000 rpm for 1 minute in centrifuge. • 8. Incubate plates in the dark at room temperature for 50 minutes. • 9. Read plates on PerkinElmer Viewlux using a FI protocol.

[7] = Hepatic microsomal stability, mouse; assay type: in vitro ADME
From the text: The microsomal stability assay is commonly used to rank compounds according to their metabolic stability. This assay addresses the pharmacologic question of how long the parent compound will remain circulating in plasma within the body.

[8] = test system: insulin receptor in human HepG2 hepatocytes; settings: HepG2 cells, 10 microM overnight, 1.76 microM insulin 5 min

solubility in PBS ([1]; PBS, compared with aqueous buffer): comparable | concentration achieved in aqueous buffer relative to IC50 ([1]; pH range of 5.0-7.4): 18-20 ×IC50 | Enterohepatic circulation [2]: observed | kidney function (serum creatinine) [4]: does not Affect Kidney Function | liver function (serum alanine transaminase or aspartate transaminase) [5]: does not Affect Liver Function
SMILES: COc1ccc(-c2cc(NCCCN3CCCCC3)c3ccccc3n2)cc1 [Compound D1, 2-(4-methoxyphenyl)-N-(3-(piperidin-1-yl)propyl)quinolin-4-amine]
3T3-L1 adipogenesis (3T3-L1 pre-adipocytes): completely abolished | glucose tolerance (IPGTT) [3]: Improves Glucose Tolerance

Hepatic Microsome Stability % Remaining @ 1 hr [7]: 0.38%
SMILES: c1ccc(-c2cc(NCCN3CCCCC3)c3ccccc3n2)cc1 [Entry 41]
phosphorylation of the insulin receptor [8]: increases phosphorylation of the insulin receptor

The next lines start with the compound.

SMILES: CN(C)Cc1cccc(Nc2cc(-c3ccc(Cl)cc3F)nc3ccccc23)c1 [Compound I9, [(3-{[2-(4-chloro-2-fluorophenyl)(4-quinolyl)]amino}phenyl)methyl]dimethylamine]
pIC50 ([6]; read-out: IC50): 5.30 to 6.10

SMILES: CNC(=O)c1ccc(-c2cc(NCCCN3CCCCC3)c3ccccc3n2)cc1F [Compound I228]
pIC50 ([6]; read-out: IC50): 5.30 to 6.10

SMILES: CCN(CC)CCNC(=O)c1ccc(-c2cc(NCCCN3CCCCC3)c3ccccc3n2)cc1 [Compound I254]
pIC50 ([6]; read-out: IC50): 6.10 to 6.70

SMILES: CSCCCN1CCCCC1 [Entry 64]
pIC50 ([6]; S sample: compound synthesized de novo by SBCCG, read-out: LMPTP (OMFP) (IC50)): 4.17

Source: patent US11220486B2 (La Jolla Institute of Allergy & Immunology, priority 2014, dated 2022)
